Active and inactive are the calls of the source. The calls are words filed in the database; no cut-off is given here.
How the values were obtained:
[1] = molecular target: T1, UDP-3-O-acyl-N-acetylglucosamine deacetylase (Escherichia coli K-12, UniProt P0A725); test: Binding affinity to Escherichia coli LpxC assessed as dissociation constant by SPR analysis
T1 sequence (P0A725 whole entry): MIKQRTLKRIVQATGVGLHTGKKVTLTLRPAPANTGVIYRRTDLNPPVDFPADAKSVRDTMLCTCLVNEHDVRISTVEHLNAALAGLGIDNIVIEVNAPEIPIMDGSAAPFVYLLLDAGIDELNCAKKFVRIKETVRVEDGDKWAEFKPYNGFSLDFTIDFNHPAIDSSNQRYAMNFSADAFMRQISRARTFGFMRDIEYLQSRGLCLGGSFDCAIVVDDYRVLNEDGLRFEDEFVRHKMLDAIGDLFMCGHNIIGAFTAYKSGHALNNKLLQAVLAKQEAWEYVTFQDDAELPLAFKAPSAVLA

[2] = molecular target: Programmed cell death protein 1/Programmed cell death 1 ligand 1 (Homo sapiens, UniProt Q9NZQ7); test: Inhibition of PD-1/PD-L1 (unknown origin) protein-protein interaction preincubated for 15 mins followed by PD-1-Eu addition and measured after 90 mins by TR-FRET assay; type: protein-complex assay
Klebsiella pneumoniae [3] = test: Induction of intracellular ROS accumulation in Klebsiella pneumoniae ATCC 13883 incubated for 12 hrs by fluorescence microscopic analysis; type: functional, organism-based
[4] = molecular target: T1, UDP-3-O-acyl-N-acetylglucosamine deacetylase; test: Inhibition of Escherichia coli LpxC
Klebsiella pneumoniae [5] = test: Antimicrobial activity against Klebsiella pneumoniae ATCC 13883 assessed as increase in percentage of bacterial cells by flow cytometry analysis; type: functional, organism-based
HeLa = test: Cytotoxicity against human HeLa cells incubated for 24 hrs by CCK-8 assay; type: functional, cell-based
Salmonella typhimurium = test: Antimicrobial activity against Salmonella typhimurium ATCC 14028 assessed as inhibition of microbial growth incubated for 64 hrs by broth-microdilution assay; type: functional, Salmonella enterica subsp. enterica serovar Typhimurium; conditions: Salmonella enterica
[6] = molecular target: Programmed cell death 1 ligand 1 (Homo sapiens) (UniProt Q9NZQ7); test: Binding affinity to PD-L1 (unknown origin) assessed as Change in enthalpy by ITC analysis
A549 = test: Cytotoxicity against human A549 cells incubated for 24 hrs by CCK-8 assay; type: functional, cell-based; conditions: A549, 24 h
[7] = Binding affinity to PD-L1 (unknown origin) assessed as dissociation constant by SPR analysis; design: species or system Homo sapiens
Pseudomonas aeruginosa [8] = test: Antimicrobial activity against Pseudomonas aeruginosa ATCC 9027 assessed as inhibition zone; type: functional; conditions: time 64 hrs
Klebsiella pneumoniae [9] = test: Antimicrobial activity against Klebsiella pneumoniae ATCC 13883 assessed as inhibition of microbial growth incubated for 64 hrs by broth-microdilution assay; type: functional
[10] = molecular target: Programmed cell death 1 ligand 1 (Homo sapiens) (UniProt Q9NZQ7); test: Binding affinity to PD-L1 (unknown origin) assessed as association constant at equilibrium by ITC analysis
Pseudomonas aeruginosa [11] = test: Antimicrobial activity against Pseudomonas aeruginosa ATCC 9027 assessed as inhibition of microbial growth incubated for 64 hrs by broth-microdilution assay; type: functional
Escherichia coli = test: Antimicrobial activity against Escherichia coli ATCC 8739 assessed as inhibition of microbial growth incubated for 64 hrs by broth-microdilution assay; type: functional
Klebsiella pneumoniae [12] = test: Antimicrobial activity against Klebsiella pneumoniae ATCC 13883 assessed as inhibition zone; type: functional
[13] = Volume of distribution at steady state in rat at 2 mg/kg, iv measured upto 24 hrs by LC-MS/MS analysis; type: ADME, organism-based; conditions: in vivo, iv, 2 mg/kg, 24 h
[14] = AUC (0 to t) in rat at 2 mg/kg, iv measured upto 24 hrs by LC-MS/MS analysis; type: ADME, organism-based; conditions: in vivo
Klebsiella pneumoniae [15] = test: Bactericidal activity against Klebsiella pneumoniae ATCC 13883 assessed as reduction in survival rate by colony counting method; type: functional
[16] = Initial plasma concentration in rat at 2 mg/kg, iv measured upto 24 hrs by LC-MS/MS analysis; type: ADME, organism-based; conditions: in vivo, iv, 2 mg/kg, 24 h
Klebsiella pneumoniae [17] = test: Antibacterial activity against Klebsiella pneumoniae ATCC 13883 infected in Kunming mouse model assessed as reduction in alveolar space in lung at 2 mg/kg, iv by H and E staining based analysis; type: functional, organism-based
Klebsiella pneumoniae [18] = test: Antibacterial activity against Klebsiella pneumoniae ATCC 13883 infected in Kunming mouse model assessed as reduction in bacterial proliferation at 2 mg/kg, iv in presence of biphenyl isopropyl ester; type: functional, organism-based
[19] = Clearance in rat at 2 mg/kg, iv measured upto 24 hrs by LC-MS/MS analysis; type: ADME, organism-based; conditions: in vivo
[20] = Half life in rat at 2 mg/kg, iv measured upto 24 hrs by LC-MS/MS analysis; type: ADME, organism-based; conditions: in vivo
Klebsiella pneumoniae [21] = test: Antibacterial activity against Klebsiella pneumoniae ATCC 13883 infected in Kunming mouse model assessed as reduction in alveolar space in lung at 2 mg/kg, iv in presence of biphenyl isopropyl ester by H and E staining based analysis; type: functional, organism-based

Sequence of Programmed cell death 1 ligand 1 (Homo sapiens) (Q9NZQ7 whole entry): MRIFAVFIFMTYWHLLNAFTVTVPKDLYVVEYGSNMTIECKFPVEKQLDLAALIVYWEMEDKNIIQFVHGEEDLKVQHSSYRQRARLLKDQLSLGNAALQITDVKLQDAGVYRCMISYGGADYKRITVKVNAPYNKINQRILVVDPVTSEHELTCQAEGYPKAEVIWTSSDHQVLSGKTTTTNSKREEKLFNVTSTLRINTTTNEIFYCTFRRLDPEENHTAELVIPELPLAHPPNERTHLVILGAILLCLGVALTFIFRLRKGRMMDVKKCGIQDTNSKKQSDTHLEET
Sequence of Programmed cell death protein 1/Programmed cell death 1 ligand 1 (Q15116 whole entry): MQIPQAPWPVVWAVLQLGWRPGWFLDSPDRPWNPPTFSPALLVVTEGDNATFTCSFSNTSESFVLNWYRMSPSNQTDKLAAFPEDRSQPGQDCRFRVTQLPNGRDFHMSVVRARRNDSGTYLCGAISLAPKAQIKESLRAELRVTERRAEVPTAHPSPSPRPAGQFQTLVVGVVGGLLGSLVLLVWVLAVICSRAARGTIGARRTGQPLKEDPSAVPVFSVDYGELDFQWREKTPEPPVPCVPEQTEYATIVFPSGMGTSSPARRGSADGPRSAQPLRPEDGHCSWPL
Sequence of Programmed cell death protein 1/Programmed cell death 1 ligand 1 (Q9NZQ7 whole entry): as the sequence (Q9NZQ7 whole entry) above

Row | SMILES | MIC50 (Salmonella typhimurium) [µg/mL] | inhibition zone (IZ) (Pseudomonas aeruginosa [8]) | MIC50 (Klebsiella pneumoniae [9]) [µg/mL] | MIC50 (Pseudomonas aeruginosa [11]) [µg/mL] | MIC50 (Escherichia coli) [µg/mL] | inhibition zone (IZ) (Klebsiella pneumoniae [12]) | also measured
1 | Cc1c(CN2CCC(C(=O)N3CCCC3C(=O)NO)CC2)cccc1-c1ccccc1 (configuration not stated) | 2 | 12.6 mm | 0.5 | 1 | 1 | 14.4 mm | Kd [1]: 0.873 nM; IC50 [2]: 318 nM; Activity (Klebsiella pneumoniae [3]): Active; IC50 [4]: 4.3 µM; Activity (Klebsiella pneumoniae [5]): Active; IC50 (HeLa): > 50 µM; deltaH [6]: 3.08 kJ/mol; IC50 (A549): > 50 µM; Kd [7]: 0.135 nM; Ka [10]: 4.59 10^5/M
2 | C[C@H](O)[C@H](NC(=O)c1ccc(C#Cc2ccc(CN3CCOCC3)cc2)cc1)C(=O)NO | 0.5 | 13.5 mm | 0.5 | 1 | 2 | 14.2 mm | Activity (Klebsiella pneumoniae [3]): Active; Vdss [13]: 1.42 L/kg; Activity (Klebsiella pneumoniae [5]): Active; AUC(0-t) at 24 h [14]: 289 ng·h/mL; Activity (Klebsiella pneumoniae [15]): 83%; C0 [16]: 332 ng/mL; Activity (Klebsiella pneumoniae [17]): Active; Activity (Klebsiella pneumoniae [18]): Active; clearance [19]: 75.6 mL/min/kg; half-life [20]: 32.4 min
3 | COc1cc(OCc2cccc(-c3ccccc3)c2C)cc(OC)c1CN1CCCC1C(=O)NO (configuration not stated) | ≥ 16 | 9.1 mm | 1 | 1 | 2 | 11.3 mm | –
4 | Cc1c(COc2cccc(CNC(C(=O)NO)C(C)C)c2)cccc1-c1ccccc1 (configuration not stated) | 4 | 6.6 mm | 4 | ≥ 16 | 8 | 8.6 mm | –
5 | COc1cc(OCc2cccc(-c3ccccc3)c2C)cc(OC)c1CNC(CO)C(=O)NO (configuration not stated) | 4 | 8.1 mm | 8 | 4 | ≥ 16 | <=6 mm | –
6 | COc1cc(OCc2cccc(-c3ccccc3)c2C)cc(OC)c1CNC(C(=O)NO)C(C)C (configuration not stated) | ≥ 16 | 6.3 mm | ≥ 16 | 8 | 4 | <=6 mm | –
7 | Cc1c(COc2cccc(CN3CCCC3C(=O)NO)c2)cccc1-c1ccccc1 (configuration not stated) | 4 | <=6 mm | ≥ 16 | 4 | ≥ 16 | 7.2 mm | –
8 | Cc1c(COc2cccc(CNC(CO)C(=O)NO)c2)cccc1-c1ccccc1 (configuration not stated) | 1 | 13.8 mm | 0.5 | 0.5 | 0.5 | 15.2 mm | Kd [1]: 0.873 nM; IC50 [2]: 109 nM; Activity (Klebsiella pneumoniae [3]): Active; IC50 [4]: 8.4 µM; Activity (Klebsiella pneumoniae [5]): Active; IC50 (HeLa): > 50 µM; deltaH [6]: 4.16 kJ/mol; IC50 (A549): > 50 µM; Kd [7]: 0.135 nM; Ka [10]: 4.17 10^5/M
9 | Cc1c(CN2CCC(C(=O)NC(C(=O)NO)C(C)C)CC2)cccc1-c1ccccc1 (configuration not stated) | 4 | <=6 mm | 4 | 8 | 2 | 9.5 mm | –
10 | COc1cc(OCc2cccc(-c3ccccc3)c2C)cc(OC)c1CNC(C(=O)NO)C(C)O (configuration not stated) | 4 | 8.9 mm | 1 | 1 | 2 | 9.4 mm | –
11 | Cc1c(CN2CCC(C(=O)NC(C(=O)NO)C(C)O)CC2)cccc1-c1ccccc1 (configuration not stated) | 1 | 14.1 mm | 0.5 | 1 | 2 | 15.8 mm | –
12 | CCn1cc(C(=O)O)c(=O)c2cc(F)c(N3CCNCC3)cc21 [NORFLOXACIN] | 2 | 14.8 mm | 1 | 1 | 0.5 | 15.9 mm | –
13 | Cc1c(CN2CCC(C(=O)NC(CO)C(=O)NO)CC2)cccc1-c1ccccc1 (configuration not stated) | 8 | 10.1 mm | 2 | 4 | ≥ 16 | 11.6 mm | –
14 | CC(C)OC(=O)[C@@H](CO)NCc1cc(Cl)c(OCc2cccc(-c3ccccc3)c2Br)cc1OCc1cccnc1 | – | – | – | – | – | – | Activity (Klebsiella pneumoniae [21]): Active; Kd [1]: 0.401 nM; deltaH [6]: 4.74 kJ/mol; Kd [7]: 0.254 nM

From ChEMBL document CHEMBL6153126, “Design, Synthesis, and Activity Evaluation of Novel Bifenamide Dual-Target Antibacterial Inhibitors and Carrier Based on Infectious Microenvironment” (J Med Chem, 2025)
